Experimental data reported in PubChem BioAssay (NCI).
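In this assay, cells in 96-well plates receive the compound at five concentrations for 48 hours. Endpoints are linearly interpolated between the surrounding concentrations. Abbreviation: GI50, concentration required for 50% inhibition of growth. TGI denotes the concentration required for complete inhibition of growth.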

Tests used:
Experiment in all cases: NCI-60 cell line screen, 48 h
U251 CNS = system: U251 CNS
DU-145 prostate = system: DU-145 prostate
T-47D breast = system: T-47D breast
OVCAR-5 ovarian = system: OVCAR-5 ovarian
SN12C renal = system: SN12C renal
MCF7 breast = system: MCF7 breast
SNB-75 CNS = system: SNB-75 CNS
MOLT-4 leukemia = system: MOLT-4 leukemia
UO-31 renal = system: UO-31 renal
SK-MEL-2 melanoma = system: SK-MEL-2 melanoma
ACHN renal = system: ACHN renal
SR leukemia = system: SR leukemia
LOX IMVI melanoma = system: LOX IMVI melanoma
HT29 colon = system: HT29 colon
COLO 205 colon = system: COLO 205 colon
UACC-62 melanoma = system: UACC-62 melanoma
A549 NSCLC = system: A549 NSCLC
SK-OV-3 ovarian = system: SK-OV-3 ovarian
HOP-92 NSCLC = system: HOP-92 NSCLC
KM12 colon = system: KM12 colon
NCI-H226 lung = system: NCI-H226 lung
HCT-15 colon = system: HCT-15 colon
SF-539 CNS = system: SF-539 CNS
SK-MEL-28 melanoma = system: SK-MEL-28 melanoma
OVCAR-3 ovarian = system: OVCAR-3 ovarian
RXF 393 renal = system: RXF 393 renal
CAKI-1 renal = system: CAKI-1 renal
EKVX NSCLC = system: EKVX NSCLC

Cc1nc2ccccn2c1NC(=O)NNC(=S)Nc1ccc(Cl)cc1
GI50 (U251 CNS): > 100 µM | TGI (U251 CNS): > 100 µM | GI50 (DU-145 prostate): > 100 µM | TGI (DU-145 prostate): > 100 µM | GI50 (T-47D breast): > 100 µM | TGI (T-47D breast): > 100 µM | GI50 (OVCAR-5 ovarian): > 100 µM | TGI (OVCAR-5 ovarian): > 100 µM | GI50 (SN12C renal): > 100 µM | TGI (SN12C renal): > 100 µM | GI50 (MCF7 breast): > 100 µM | TGI (MCF7 breast): > 100 µM | GI50 (SNB-75 CNS): > 100 µM | TGI (SNB-75 CNS): > 100 µM | GI50 (MOLT-4 leukemia): > 100 µM | TGI (MOLT-4 leukemia): > 100 µM | GI50 (UO-31 renal): > 100 µM | TGI (UO-31 renal): > 100 µM | GI50 (SK-MEL-2 melanoma): > 100 µM | TGI (SK-MEL-2 melanoma): > 100 µM | GI50 (ACHN renal): > 100 µM | TGI (ACHN renal): > 100 µM | GI50 (SR leukemia): 95.7 µM | TGI (SR leukemia): > 100 µM | GI50 (LOX IMVI melanoma): > 100 µM | TGI (LOX IMVI melanoma): > 100 µM | GI50 (HT29 colon): > 100 µM | TGI (HT29 colon): > 100 µM | GI50 (COLO 205 colon): > 100 µM | TGI (COLO 205 colon): > 100 µM | GI50 (UACC-62 melanoma): > 100 µM | TGI (UACC-62 melanoma): > 100 µM | GI50 (A549 NSCLC): > 100 µM | TGI (A549 NSCLC): > 100 µM | GI50 (SK-OV-3 ovarian): > 100 µM | TGI (SK-OV-3 ovarian): > 100 µM | GI50 (HOP-92 NSCLC): > 100 µM | TGI (HOP-92 NSCLC): > 100 µM | GI50 (KM12 colon): > 100 µM | TGI (KM12 colon): > 100 µM | GI50 (NCI-H226 lung): > 100 µM | TGI (NCI-H226 lung): > 100 µM | GI50 (HCT-15 colon): > 100 µM | TGI (HCT-15 colon): > 100 µM | GI50 (SF-539 CNS): > 100 µM | TGI (SF-539 CNS): > 100 µM | GI50 (SK-MEL-28 melanoma): > 100 µM | TGI (SK-MEL-28 melanoma): > 100 µM | GI50 (OVCAR-3 ovarian): > 100 µM | TGI (OVCAR-3 ovarian): > 100 µM | GI50 (RXF 393 renal): > 100 µM | TGI (RXF 393 renal): > 100 µM | GI50 (CAKI-1 renal): > 100 µM | TGI (CAKI-1 renal): > 100 µM | GI50 (EKVX NSCLC): > 100 µM | TGI (EKVX NSCLC): > 100 µM
